Like-named read-outs stand apart in the source and are kept apart here.
Columns and labels:
monkey NPR1 = monkey NPR1 (Macaca fascicularis, UniProt A0A7N9DBT9); experiment: Cellular cGMP production assay, monkey NPR1 expressing CHO-K1 cells (CisBio HTRF); assay type: cell-based; conditions: for Monkey NPR1 Amax (% of ANP): maximum cGMP production as percentage of the maximum cGMP produced with ANP
In short: (§1)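 Cells receive IBMX (1 mM) assay buffer plus test compound over twelve threefold dilutions starting at 30 μM, and cGMP accumulates for 30 min at 37 °C. Lysates are then incubated one hour at room temperature with d2-labelled cGMP and cryptate-labelled antibody before time-resolved fluorescence reading.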

human NPR1 = target: T1, human NPR1 (Homo sapiens, UniProt P16066); experiment: Cellular cGMP production assay, human NPR1 expressing CHO-K1 cells (CisBio HTRF); assay type: cell-based; conditions: for AC50: cGMP production, 30 min at 37° C., 12-point dose-response from 30 μM; for Human NPR1 Amax (% of ANP): maximum cGMP production as percentage of the maximum cGMP produced with ANP
T1 construct: host or cells: CHO-K1
T1 sequence (P16066 33-1061): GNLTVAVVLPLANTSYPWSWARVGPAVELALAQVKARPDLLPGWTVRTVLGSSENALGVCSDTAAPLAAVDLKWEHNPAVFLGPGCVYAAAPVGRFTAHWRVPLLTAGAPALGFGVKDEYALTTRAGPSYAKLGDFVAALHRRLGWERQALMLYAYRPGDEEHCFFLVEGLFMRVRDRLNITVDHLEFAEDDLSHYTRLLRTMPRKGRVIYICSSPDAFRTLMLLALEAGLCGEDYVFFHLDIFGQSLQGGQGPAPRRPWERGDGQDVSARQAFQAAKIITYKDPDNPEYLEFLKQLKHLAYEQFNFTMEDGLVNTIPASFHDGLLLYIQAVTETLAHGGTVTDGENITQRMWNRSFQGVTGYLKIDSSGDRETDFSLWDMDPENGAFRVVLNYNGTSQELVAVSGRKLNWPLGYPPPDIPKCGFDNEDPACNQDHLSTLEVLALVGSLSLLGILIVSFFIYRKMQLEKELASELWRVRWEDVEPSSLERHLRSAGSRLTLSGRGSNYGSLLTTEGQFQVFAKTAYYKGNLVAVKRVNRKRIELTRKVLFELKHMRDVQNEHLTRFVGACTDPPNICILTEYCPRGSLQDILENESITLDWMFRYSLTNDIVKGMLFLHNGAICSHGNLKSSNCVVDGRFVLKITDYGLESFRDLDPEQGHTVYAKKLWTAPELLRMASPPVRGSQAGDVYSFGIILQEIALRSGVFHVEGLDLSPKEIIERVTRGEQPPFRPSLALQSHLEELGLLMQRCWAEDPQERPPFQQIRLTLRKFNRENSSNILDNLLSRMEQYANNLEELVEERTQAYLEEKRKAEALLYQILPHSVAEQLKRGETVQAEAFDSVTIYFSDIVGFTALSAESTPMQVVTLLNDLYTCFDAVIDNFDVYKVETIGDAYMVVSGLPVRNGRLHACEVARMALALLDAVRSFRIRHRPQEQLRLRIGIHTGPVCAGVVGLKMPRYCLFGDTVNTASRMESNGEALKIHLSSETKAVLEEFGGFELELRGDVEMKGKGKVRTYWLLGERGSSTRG
In short: as §1

[1] = cGMP production, monkey NPR1 CHO-K1 cells, 30 min at 37° C., 12-point dose-response from 30 μM, read-out: Monkey NPR1 AC50

Sequence of monkey NPR1 (A0A7N9DBT9 entry or part of it): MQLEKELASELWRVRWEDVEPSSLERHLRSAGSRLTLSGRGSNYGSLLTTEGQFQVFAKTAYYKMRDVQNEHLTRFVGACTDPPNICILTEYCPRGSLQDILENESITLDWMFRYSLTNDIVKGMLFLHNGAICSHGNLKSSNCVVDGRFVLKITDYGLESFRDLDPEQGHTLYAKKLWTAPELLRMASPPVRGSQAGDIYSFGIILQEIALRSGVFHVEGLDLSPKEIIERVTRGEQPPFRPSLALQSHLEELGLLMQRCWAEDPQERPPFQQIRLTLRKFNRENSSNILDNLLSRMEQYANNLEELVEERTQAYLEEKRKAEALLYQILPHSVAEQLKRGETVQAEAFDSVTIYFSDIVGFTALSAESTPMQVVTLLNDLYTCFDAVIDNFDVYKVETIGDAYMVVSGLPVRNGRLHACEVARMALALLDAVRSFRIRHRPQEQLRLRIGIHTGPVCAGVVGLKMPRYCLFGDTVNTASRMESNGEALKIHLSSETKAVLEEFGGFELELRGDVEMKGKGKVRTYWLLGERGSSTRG

SMILES | AC50 (monkey NPR1; [1]) [nM] | Monkey NPR1 Amax (% of ANP) (monkey NPR1; monkey NPR1 CHO-K1 cells) | AC50 (human NPR1) [nM] | Human NPR1 Amax (% of ANP) (human NPR1) | AC50 (monkey NPR1) [nM]
CC[C@H]([C@H]1CC[C@H](C(=O)O)CC1)N(C)c1nc2c(c(N[C@@H](CN3CCCC[C@@H]3CO)c3cnn(CC)c3)n1)C[C@H](c1cccc(F)c1)CC2 [Compound 104, (1R,4r)-4-((R)-1-(((R)-4-(((R)-1-(1-ethyl-1H-pyrazol-4-yl)-2-((R)-2-(hydroxymethyl)piperidin-1-yl)ethyl)amino)-6-(3-fluorophenyl)-5,6,7,8-tetrahydroquinazolin-2-yl)(methyl)amino)propyl)cyclohexane-1-carboxylic acid] | 290 | 109.908 % of ANP | 396 | 106.357 % of ANP | 
CC[C@H]([C@H]1CC[C@H](C(=O)O)CC1)N(C)c1nc2c(c(N[C@@H](CN3C4CCCC3CC4)c3cnc(C)s3)n1)C[C@H](c1cccc(F)c1)CC2 [Compound 81, (1R,4r)-4-((1R)-1-(((6R)-4-(((1S)-2-(8-azabicyclo[3.2.1]octan-8-yl)-1-(2-methylthiazol-5-yl)ethyl)amino)-6-(3-fluorophenyl)-5,6,7,8-tetrahydroquinazolin-2-yl)(methyl)amino)propyl)cyclohexane-1-carboxylic acid] |  | 100.863 % of ANP | 271 | 101.636 % of ANP | 175
CC[C@@H](N(C)c1nc2c(c(N[C@@H](CN3C4CCCC3CC4)c3sc(C)nc3C)n1)C[C@H](c1cccc(F)c1)CC2)C12CC(C(=O)O)(C1)C2 [Compound 111, 3-((1R)-1-(((6R)-4-(((1S)-2-(8-azabicyclo[3.2.1]octan-8-yl)-1-(2,4-dimethylthiazol-5-yl)ethyl)amino)-6-(3-fluorophenyl)-5,6,7,8-tetrahydroquinazolin-2-yl)(methyl)amino)propyl)bicyclo[1.1.1]pentane-1-carboxylic acid] |  | 103.264 % of ANP | 424 | 106.085 % of ANP | 271
CC[C@@H](N(C)c1nc2c(c(N[C@@H](CN3C4CCCC3CC4)c3cnn(C)c3)n1)C[C@H](c1ccc(F)cc1)CC2)C12CC(C(=O)O)(C1)C2 [Compound 25, 3-((1R)-1-(((6R)-4-(((1R)-2-(8-azabicyclo[3.2.1]octan-8-yl)-1-(1-methyl-1H-pyrazol-4-yl)ethyl)amino)-6-(4-fluorophenyl)-5,6,7,8-tetrahydroquinazolin-2-yl)(methyl)amino)propyl)bicyclo[1.1.1]pentane-1-carboxylic acid] |  | 106.072 % of ANP | 126 | 102.816 % of ANP | 108
CC[C@@H](Nc1nc2c(c(N[C@@H](CN3CCC[C@H](C)C3)c3cnn(CC)c3)n1)CN(c1cccc(F)c1)CC2)[C@H]1CC[C@H](C(=O)O)CC1 [Compound 76, (1R,4r)-4-((R)-1-((4-(((R)-1-(1-ethyl-1H-pyrazol-4-yl)-2-((S)-3-methylpiperidin-1-yl)ethyl)amino)-6-(3-fluorophenyl)-5,6,7,8-tetrahydropyrido[4,3-d]pyrimidin-2-yl)amino)propyl)cyclohexane-1-carboxylic acid] | 147 | 100.861 % of ANP | 247 | 100.752 % of ANP | 
CC[C@H]([C@H]1CC[C@H](C(=O)O)CC1)N(C)c1nc2c(c(N[C@@H](CN3CCC[C@H](C)C3)c3cnn(C)c3)n1)CN(c1ccccc1F)CC2 [Compound 106, (1R,4r)-4-((R)-1-((6-(2-fluorophenyl)-4-(((R)-1-(1-methyl-1H-pyrazol-4-yl)-2-((S)-3-methylpiperidin-1-yl)ethyl)amino)-5,6,7,8-tetrahydropyrido[4,3-d]pyrimidin-2-yl)(methyl)amino)propyl)cyclohexane-1-carboxylic acid] | 254 | 104.076 % of ANP | 399 | 100.198 % of ANP | 
CC[C@@H](Nc1nc2c(c(N[C@@H](CN3C4CCCC3CCC4)c3cnn(C)c3)n1)C[C@H](c1cccc(F)c1)CC2)[C@H]1CC[C@H](C(=O)O)CC1 [Compound 15, (1R,4r)-4-((R)-1-(((R)-4-(((R)-2-((1S,5S)-9-azabicyclo[3.3.1]nonan-9-yl)-1-(1-methyl-1H-pyrazol-4-yl)ethyl)amino)-6-(3-fluorophenyl)-5,6,7,8-tetrahydroquinazolin-2-yl)amino)propyl)cyclohexane-1-carboxylic acid] |  | 109.175 % of ANP | 102 | 106.001 % of ANP | 92
CC[C@@H](Nc1nc2c(c(N[C@@H](CN3CCC[C@H](C)C3)c3cnn(C)c3)n1)C[C@](C)(c1ccccc1F)CC2)[C@H]1CC[C@H](C(=O)O)CC1 [Compound 20, (1R,4r)-4-((R)-1-(((R)-6-(2-fluorophenyl)-6-methyl-4-(((R)-1-(1-methyl-1H-pyrazol-4-yl)-2-((S)-3-methylpiperidin-1-yl)ethyl)amino)-5,6,7,8-tetrahydroquinazolin-2-yl)amino)propyl)cyclohexane-1-carboxylic acid] | 60 | 92.710 % of ANP | 109 | 95.253 % of ANP | 
CC[C@@H](Nc1nc2c(c(N[C@@H](CN3C4CCCC3CCC4)c3cnn(CC)c3)n1)C[C@H](c1cccc(F)c1)CC2)[C@H]1CC[C@H](C(=O)O)CC1 [Compound 17, (1R,4r)-4-((R)-1-(((R)-4-(((R)-2-((1S,5S)-9-azabicyclo[3.3.1]nonan-9-yl)-1-(1-ethyl-1H-pyrazol-4-yl)ethyl)amino)-6-(3-fluorophenyl)-5,6,7,8-tetrahydroquinazolin-2-yl)amino)propyl)cyclohexane-1-carboxylic acid] |  | 99.682 % of ANP | 105 | 97.959 % of ANP | 68
CC[C@@H](N(C)c1nc2c(c(N[C@@H](CN3C4CCCC3CC4)c3scnc3C)n1)C[C@H](c1cccc(F)c1)CC2)C12CC(C(=O)O)(C1)C2 [Compound 113, 3-((1R)-1-(((6R)-4-(((1S)-2-(8-azabicyclo[3.2.1]octan-8-yl)-1-(4-methylthiazol-5-yl)ethyl)amino)-6-(3-fluorophenyl)-5,6,7,8-tetrahydroquinazolin-2-yl)(methyl)amino)propyl)bicyclo[1.1.1]pentane-1-carboxylic acid] |  | 99.894 % of ANP | 438 | 98.462 % of ANP | 460
CC[C@@H](Nc1nc2c(c(N[C@@H](CN3CCC[C@H](C)C3)c3cnn(C)c3)n1)C[C@](C)(c1cccc(F)c1)CC2)[C@H]1CC[C@H](C(=O)O)CC1 [Compound 2, (1R,4r)-4-((R)-1-(((R)-6-(3-fluorophenyl)-6-methyl-4-(((R)-1-(1-methyl-1H-pyrazol-4-yl)-2-((S)-3-methylpiperidin-1-yl)ethyl)amino)-5,6,7,8-tetrahydroquinazolin-2-yl)amino)propyl)cyclohexane-1-carboxylic acid] | 44 | 103.371 % of ANP | 42 | 96.935 % of ANP | 
CC[C@H]([C@H]1CC[C@H](C(=O)O)CC1)N(C)c1nc2c(c(N[C@@H](CN3CCC[C@H](C)C3)c3cnn(C)c3)n1)CN(c1cccc(C#N)c1)CC2 [Compound 174, (1R,4r)-4-((R)-1-((6-(3-cyanophenyl)-4-(((R)-1-(1-methyl-1H-pyrazol-4-yl)-2-((S)-3-methylpiperidin-1-yl)ethyl)amino)-5,6,7,8-tetrahydropyrido[4,3-d]pyrimidin-2-yl)(methyl)amino)propyl)cyclohexane-1-carboxylic acid] | 10 | 97.462 % of ANP | 14 | 93.788 % of ANP | 

Reference: US12129246B1, “Hydroquinazoline derivatives for the treatment of a disease or disorder” (Novartis AG, priority 2023, dated 2024)
